Laboratory results taken from article PMC8459971, “Evaluation of the hepatotoxicity of the novel GPR40 (FFAR1) agonist CPL207280 in the rat and monkey” (PLoS ONE, 2021).
Where “and” joins values, the source holds several entries; their conditions need not be identical. Identical values can stand only once.

Columns and labels:
OAT2v1 = biological target: T1, OAT2v1 (Homo sapiens, UniProt Q9Y694); test: Uptake transporter inhibition assay, OAT2v1; format: cell-based; details: for Accumulation (counts per minute; CPM) HEK293FT-MOCK / Accumulation (counts per minute; CPM) HEK293FT-OAT2v1: OAT2v1
T1 construct: expressed in transfected cells; host or cells: HEK cells
T1 sequence (Q9Y694 1-546 isoform Q9Y694-2): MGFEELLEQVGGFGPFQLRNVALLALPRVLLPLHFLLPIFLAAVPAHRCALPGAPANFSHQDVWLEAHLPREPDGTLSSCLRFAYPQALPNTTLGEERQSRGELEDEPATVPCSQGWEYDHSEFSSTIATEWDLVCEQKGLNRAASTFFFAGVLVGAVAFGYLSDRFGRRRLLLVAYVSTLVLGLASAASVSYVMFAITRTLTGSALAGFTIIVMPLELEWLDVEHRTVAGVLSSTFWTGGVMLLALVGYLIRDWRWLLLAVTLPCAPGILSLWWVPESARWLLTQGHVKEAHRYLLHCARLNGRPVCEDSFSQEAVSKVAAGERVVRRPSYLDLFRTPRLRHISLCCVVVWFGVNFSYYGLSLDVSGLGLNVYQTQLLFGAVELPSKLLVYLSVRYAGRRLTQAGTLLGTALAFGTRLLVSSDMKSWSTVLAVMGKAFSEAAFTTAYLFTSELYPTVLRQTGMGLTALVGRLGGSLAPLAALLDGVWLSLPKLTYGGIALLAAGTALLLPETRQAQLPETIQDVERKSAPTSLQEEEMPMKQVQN
Method: For the uptake transporter inhibition assay, cells were washed twice with 100 μL of the appropriate buffer (HK, pH 7.4) for OATP1B1, followed by HBSS (pH 7.4) for (NTCP, OAT1, OAT2v1, OATP1A2, and OATP1B3). Uptake experiments were carried out at 37 ± 1°C in 50 μL of the respective buffer containing the probe substrate and the compound or solvent.

[1] = Stability in microsomes, monkey; format: in vitro ADME; details: for average DEG [%]: monkey microsomes, with cofactors
Method: The final incubation volume was 500 μL. Two control compounds (verapamil and donepezil) were included for each microsomal species, along with the appropriate vehicle control. The reactions were terminated by transferring 50 μL of incubate to 100 μL methanol containing an internal standard (metoprolol) at appropriate time points (0, 10, 20, 40, 60, and 120 min for the test compound and 0, 5, 10, 20, 40, and 60 min for the control compounds). The termination plates were centrifuged at 4000 x g at 4°C for 30 min to precipitate the protein. The supernatants were then collected for analysis, and LC-MS/MS was used for detection purposes. The system consisted of an Acquity™ Binary Solvent Manager, Acquity™ 4-position heated column manager, 2777 Ultra High Pressure Autosampler, and a Xevo-TQ MS triple quadrupole mass spectrometer (Waters Ltd., Herts, UK). This process was carried out twice.

HepG2 = test: Viability assay, HepG2 cells, MTT test, 48 h; format: cell-based, human; details: for viability, normalized to DMSO-treated controls: sheet Fig1 panel B (HepG2), 48 h, replicates, in % (unit assumed)
Method: To study the viability of the liver cells, 5 × 10^3 HepG2 (ATCC®) or human primary cells (ThermoFisher Scientific, USA) were seeded in 100 μL of DMEM media (Gibco; Thermo Fisher Scientific, USA) supplemented with fetal bovine serum (FBS)- in a 96-well plate. […] The experiments were performed in triplicates.

HepG2 cells = test: Respiration in hepatocytes (Seahorse XF Mito stress test); format: cell-based, human; details: Fig2 A
[2] = Monkey (Cynomolgus) microsomes, mean n = 2

CC#C[C@@H](CC(=O)O)c1ccc(OCC(C)=C(C)C)cc1 [CPL207280]
fold less inhibitory potency than TAK-875, OAT2v1 (OAT2v1): at least 10 fold
Accumulation (counts per minute; CPM) HEK293FT-MOCK (OAT2v1; conc 0.10 µM): 34 CPM and 30 CPM
Accumulation (counts per minute; CPM) HEK293FT-OAT2v1 (OAT2v1; conc 0.10 µM): 4632 CPM and 4226 CPM
Accumulation (counts per minute; CPM) HEK293FT-MOCK (OAT2v1; conc 1.00 µM): 35 CPM and 32 CPM
Accumulation (counts per minute; CPM) HEK293FT-OAT2v1 (OAT2v1; conc 1.00 µM): 4766 CPM and 4500 CPM
Accumulation (counts per minute; CPM) HEK293FT-MOCK (OAT2v1; conc 3.00 µM): 30 CPM and 23 CPM
Accumulation (counts per minute; CPM) HEK293FT-OAT2v1 (OAT2v1; conc 3.00 µM): 4371 CPM and 4417 CPM
Accumulation (counts per minute; CPM) HEK293FT-MOCK (OAT2v1; conc 10.00 µM): 27 CPM and 18 CPM
Accumulation (counts per minute; CPM) HEK293FT-OAT2v1 (OAT2v1; conc 10.00 µM): 4079 CPM and 4225 CPM
Accumulation (counts per minute; CPM) HEK293FT-MOCK (OAT2v1; conc 30.00 µM): 32 CPM and 37 CPM
Accumulation (counts per minute; CPM) HEK293FT-OAT2v1 (OAT2v1; conc 30.00 µM): 3998 CPM and 4091 CPM
Accumulation (counts per minute; CPM) HEK293FT-MOCK (OAT2v1; conc 100.00 µM): 28 CPM and 36 CPM
Accumulation (counts per minute; CPM) HEK293FT-OAT2v1 (OAT2v1; conc 100.00 µM): 3763 CPM and 3594 CPM
Accumulation (counts per minute; CPM) HEK293FT-MOCK (OAT2v1; conc 300.00 µM): 35 CPM and 25 CPM
Accumulation (counts per minute; CPM) HEK293FT-OAT2v1 (OAT2v1; conc 300.00 µM): 2566 CPM and 2951 CPM
half-life at 3 μM [1, 2]: 23 min
microsomal CLint at 3 μM [1, 2]: 60.9 µL/min/mg
average DEG [%] ([1]; 0 min): 100.0%
average DEG [%] ([1]; 20 min): 64.8%
average DEG [%] ([1]; 40 min): 34.1%
average DEG [%] ([1]; 60 min): 16.3%
reduction of viability (HepG2; HepG2, 48 h, 100 μM): 20%
viability (HepG2; HepG2, 48 h, concentrations up to 10 μM): Neither compound exhibited altered viability
times better tolerated by hepatocytes than TAK-875 (HepG2; hepatocytes (HepG2 and human primary cells)): 10 times
viability, normalized to DMSO-treated controls (HepG2; 0.78 uM): 122.329 and 97.5265 and 106.534
viability, normalized to DMSO-treated controls (HepG2; 3.125 uM): 108.127 and 98.0055
viability, normalized to DMSO-treated controls (HepG2; 6.25 uM): 101.696 and 107.84
viability, normalized to DMSO-treated controls (HepG2; 25 uM): 115.053 and 98.9684
viability, normalized to DMSO-treated controls (HepG2; 50 uM): 104.17 and 94.9794
viability, normalized to DMSO-treated controls (HepG2; 100 uM): 89.5534 and 112.297 and 99.381
oxygen consumption rate, mito stress tracing (HepG2 cells; HepG2, 0.3 uM, 34.6705 min): 80.249 and 97.2155 and 86.8514
oxygen consumption rate, mito stress tracing (HepG2 cells; HepG2, 0.3 uM, 41.3548 min): 35.437 and 46.6744 and 43.9128
oxygen consumption rate, mito stress tracing (HepG2 cells; HepG2, 0.3 uM, 47.9665 min): 35.8498 and 44.0725 and 43.5554
oxygen consumption rate, mito stress tracing (HepG2 cells; HepG2, 0.3 uM, 54.5812 min): 34.6812 and 46.6208 and 43.7024
oxygen consumption rate, mito stress tracing (HepG2 cells; HepG2, 0.3 uM, 61.2916 min): 130.123 and 163.716 and 142.011
oxygen consumption rate, mito stress tracing (HepG2 cells; HepG2, 0.3 uM, 67.9128 min): 106.485 and 133.91 and 115.698
oxygen consumption rate, mito stress tracing (HepG2 cells; HepG2, 0.3 uM, 74.5347 min): 96.5173
oxygen consumption rate, mito stress tracing (HepG2 cells; HepG2, 1 uM, 34.6705 min): 100.011 and 78.8082 and 81.9508
oxygen consumption rate, mito stress tracing (HepG2 cells; HepG2, 1 uM, 41.3548 min): 47.2411 and 41.158 and 37.0741
oxygen consumption rate, mito stress tracing (HepG2 cells; HepG2, 1 uM, 47.9665 min): 46.2402 and 40.9403 and 37.3629
